Assay results published in patent US6605601B2, “A1 adenosine receptor antagonists” (Biogen, Inc., priority 2000, dated 2003).

Molecular target: T1, rat A1 adenosine receptor (Rattus norvegicus, UniProt P25099)
T1 construct: Membranes were prepared from rat cerebral cortex isolated from freshly euthanized rats; from tissue; host or cells: rat cerebral cortex
T1 sequence (P25099 1-326): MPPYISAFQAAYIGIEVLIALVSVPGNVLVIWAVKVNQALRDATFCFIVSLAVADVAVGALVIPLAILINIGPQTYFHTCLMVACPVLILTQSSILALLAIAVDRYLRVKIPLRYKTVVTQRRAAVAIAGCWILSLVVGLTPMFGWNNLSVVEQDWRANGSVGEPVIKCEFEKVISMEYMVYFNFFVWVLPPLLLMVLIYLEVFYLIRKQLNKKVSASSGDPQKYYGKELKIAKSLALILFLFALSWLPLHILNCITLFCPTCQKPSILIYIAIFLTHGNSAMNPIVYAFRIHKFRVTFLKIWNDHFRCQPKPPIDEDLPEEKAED
Test: Radioligand ([3H]DPCPX) competition binding assay on rat A1 adenosine receptor (rat cerebral cortex membranes)
Conditions: for Ki: [3H]DPCPX 1 nM, Cheng-Prusoff from IC50; for % specific radioligand binding remaining at 1 µM: 2.5 h, % of total specific radioligand binding remaining at 1 μM of competing compound
Procedure: For some of these compounds, the Ki values for rat and human adenosine A1 receptors were determined according to the following binding assay protocol.
Rat A1 Receptor: Membranes were prepared from rat cerebral cortex isolated from freshly euthanized rats. Tissues were homogenized in buffer A (10 mM EDTA, 10 mM Na-HEPES, pH 7.4) supplemented with protease inhibitors (10 μg/ml benzamidine, 100 μM PMSF, and 2 μg/ml each of aprotinin, pepstatin and leupeptin), and centrifuged at 20,000×g for 20 min. Pellets were resuspended and washed twice with buffer HE (10 mM Na-HEPES, 1 mM EDTA, pH 7.4, plus protease inhibitors). Final pellets were resuspended in buffer HE, supplemented with 10% (w/v) sucrose and protease inhibitors, and frozen in aliquots at −80° C. Protein concentrations were measured using BCA protein assay kit (Pierce).
Membranes (50 μg membrane protein for rat A1ARs, and 25 μg of CHO-K1 membrane protein for human A1ARs), radioligands and varying concentrations of competing ligands were incubated in triplicates in 0.1 ml buffer HE plus 2 units/ml adenosine deaminase for 2.5 h at 21° C. Radioligand [^3H]DPCPX (112 Ci/mmol from NEN, final concentration: 1 nM) was used for competition binding assays on A1ARs. Nonspecific binding was measured in the presence of 10 μM BG9719. Binding assays were terminated by filtration over Whatman GF/C glass fiber filters using a BRANDEL cell harvester. Filters were rinsed three times with 3-4 ml ice-cold 10 mM Tris-HCl, pH 7.4 and 5 mM MgCl2 at 4° C. Filter paper was transferred to a vial, and 3 ml of scintillation cocktail ScintiVerseII (Fisher)was added. Radioactivity was counted in a Wallac β-counter.
For K1 Determinations: Competition binding data were fit to a single-site binding model and plotted using Prizm GraphPad.
For % Binding: For one-point binding assays, data were presented as % of total specific binding at 1 μM of competing compound: % of total =100* (Specific binding with 1 μM of competing compound/total specific binding). % binding represents the amount of bound radioligand remaining in the presence of 1 μM of competing antagonist.

Ki [nM] | % specific radioligand binding remaining at 1 µM [%] | SMILES
4.4 |  | CCCN1C(=O)N2C[C@@H](C(C)C)N=C2c2[nH]c(C34CCC(O)(CC3)CC4)nc21 [Compound 1, 2-(4-Hydroxy-bicyclo[2.2.2]oct-1-yl)-7-isopropyl-4-propyl-1,4,6,7-tetrahydro-1,3,4,5a,8-pentaaza-as-indacen-5-one]
 | 52.7 | CCCN1C(=O)N2CCCN=C2c2[nH]c(C34CCC(O)(CC3)CC4)nc21 [Compound 20]
5.75 |  | CCCN1C(=O)N2C[C@@H](CC)N=C2c2[nH]c(C34CCC(O)(CC3)CC4)nc21 [Compound 2, 7-Ethyl-2-(4-hydroxy-bicyclo[2.2.2]oct-1-yl)-4-propyl-1,4,6,7-tetrahydro-1,3,4,5a,8-pentaaza-as-indacen-5-one]
43.2 | 3.7 | CCC[C@@H]1CN2C(=O)N(CCC)c3nc(C45CCC(O)(CC4)CC5)[nH]c3C2=N1 [Compound 11]
51.3 | 8.6 | CCCN1C(=O)N2C(=NC[C@@H]2C)c2[nH]c(C34CCC(O)(CC3)CC4)nc21 [Compound 12]
155 |  | CCCN1C(=O)N2C[C@@H](C(C)(C)C)N=C2c2[nH]c(C34CCC(O)(CC3)CC4)nc21 [Compound 16]
93 | 7.7 | CCCN1C(=O)N2C[C@H](C(C)CC)N=C2c2[nH]c(C34CCC(O)(CC3)CC4)nc21 (stereo partly shown) [Compound 15]
14.1 | 1 | CCCN1C(=O)N2C[C@@H](C(C)CC)N=C2c2[nH]c(C34CCC(O)(CC3)CC4)nc21 (stereo partly shown) [Compound 8]
68.5 | 7.8 | CCCN1C(=O)N2C(=NC[C@H]2C)c2[nH]c(C34CCC(O)(CC3)CC4)nc21 [Compound 14]
 | 16.3 | CCCN1C(=O)N2CCCCN=C2c2[nH]c(C34CCC(O)(CC3)CC4)nc21 [Compound 27]
 | 40 | CCCN1C(=O)N2CC[C@@H](C)N=C2c2[nH]c(C34CCC(O)(CC3)CC4)nc21 [Compound 31]
9.92 |  | CCCN1C(=O)N2C[C@@H](C)N=C2c2[nH]c(C34CCC(O)(CC3)CC4)nc21 [Compound 4, 2-(4-Hydroxy-bicyclo[2.2.2]oct-1-yl)-7-methyl-4-propyl-1,4,6,7-tetrahydro-1,3,4,5a,8-pentaaza-as-indacen-5-one]
 | 11 | CCCN1C(=O)N2C[C@H](CC)N=C2c2[nH]c(C34CCC(O)(CC3)CC4)nc21 [Compound 24]
 | 12.2 | CCCN1C(=O)N2CCN=C2c2[nH]c(C34CCC(O)(CC3)CC4)nc21 [Compound 21]

Further lines, the molecule ahead of its results:

SMILES | Ki [nM] | % specific radioligand binding remaining at 1 µM [%]
CCCN1C(=O)N2C[C@@H](CC)N=C2c2[nH]c(C34CCC(CCC(=O)O)(CC3)CC4)nc21 [Compound 3, 3-[4-(7-Ethyl-5-oxo-4-propyl-4,5,6,7-tetrahydro-1H-1,3,4,5a,8-pentaaza-as-indacen-2-yl)-bicyclo[2.2.2]oct-1-yl]-propionic acid] | 8.38 | 
CCCN1C(=O)N2C[C@@H](Cc3ccccc3)N=C2c2[nH]c(C34CCC(O)(CC3)CC4)nc21 [Compound 18] | 708 | 
CCCN1C(=O)N2C[C@H](CC)N=C2c2[nH]c(C34CCC(C(=O)O)(CC3)CC4)nc21 [Compound 26] |  | 41.1
CCCN1C(=O)N2C[C@@H](c3ccccc3)N=C2c2[nH]c(C34CCC(O)(CC3)CC4)nc21 [Compound 13] | 68.3 | 
CCCN1C(=O)N2C[C@@H](C)N=C2c2[nH]c(C34CCC(CCC(=O)O)(CC3)CC4)nc21 [Compound 7] | 13.7 | 2.5
CCCN1C(=O)N2C[C@@H](Cc3ccc(O)cc3)N=C2c2[nH]c(C34CCC(O)(CC3)CC4)nc21 [Compound 28] |  | 36.3
CCCN1C(=O)N2C[C@@H](CC(C)C)N=C2c2[nH]c(C34CCC(O)(CC3)CC4)nc21 [Compound 17] | 167 | 
CCCN1C(=O)N2CCCN=C2c2[nH]c(C34CCC(C(=O)O)(CC3)CC4)nc21 [Compound 29] |  | 81.8
CCCN1C(=O)N2CCCCN=C2c2[nH]c(C34CCC(C(=O)O)(CC3)CC4)nc21 [Compound 30] |  | 71
CCC[C@@H]1CN2C(=O)N(CCC)c3nc(C45CCC(C(=O)O)(CC4)CC5)[nH]c3C2=N1 [Compound 23] |  | 22.8
CCCN1C(=O)N2C[C@@H](CC)N=C2c2[nH]c(C34CCC(C(=O)O)(CC3)CC4)nc21 [Compound 10] | 40.2 | 6.2
CCCN1C(=O)N2C[C@@H](C)N=C2c2[nH]c(C34CCC(C(=O)O)(CC3)CC4)nc21 [Compound 22] |  | 24
CCCN1C(=O)N2CCN=C2c2[nH]c(C34CCC(C(=O)O)(CC3)CC4)nc21 [Compound 6, 4-(5-Oxo-4-propyl-4,5,6,7-tetrahydro-1H-1,3,4,5a,8-pentaaza-as-indacen-2-yl)-bicyclo[2.2.2]octane-l-carboxylic acid] |  | 2.6
CCCN1C(=O)N2C[C@@H](C(C)C)N=C2c2[nH]c(C34CCC(CCC(=O)O)(CC3)CC4)nc21 [Compound 5, 3-[4-(7-Isopropyl-5-oxo-4-propyl-4,5,6,7-tetrahydro-1H-1,3,4,5a,8-pentaaza-as-indacen-2-yl)-bicyclo[2.2.2]oct-1-yl]-propionic acid] | 10.5 | 1.9
CCCN1C(=O)N2C[C@@H](CC)N=C2c2[nH]c(C34CCC(CC3)CC4)nc21 [Compound 9] | 26.7 | 0.1
CCCC[C@@H]1CN2C(=O)N(CCC)c3nc(C45CCC(O)(CC4)CC5)[nH]c3C2=N1 [Compound 19] |  | 18.1
CCCN1C(=O)N2C[C@@H](C(C)C)N=C2c2[nH]c(C34CCC(C(=O)O)(CC3)CC4)nc21 [Compound 25] |  | 46.7
